{
  "source": "patent US12460262B2",
  "about": "“Methods of detecting, preventing, reversing, and treating neurological diseases” (Washington University, priority 2018, dated 2025)",
  "key": {"ISF Aβ levels": {"system": "ISF Aβ levels", "set-up": "species or system mice", "settings": "mouse, in vivo", "method": "To investigate the effect of NAGLU on Aβ generation and clearance, in vivo microdialysis is used to dynamically assess ISF Aβ metabolism in the hippocampus of 5XFAD/NAGLU (+14 5XFAD/NAGLU (−/−) mice and 5XFAD littermates injected with AVV2/9 or PBS at 3-4 months of age. To assess ISF Aβ levels over time in the hippocampus of awake, freely moving mice in vivo microdialysis is performed as previously described. Briefly, under isoflurane anesthesia, a guide cannula is stereotaxically implanted above the hippocampus (3.1 mm behind bregma, 2.5 mm lateral to midline, and 1.2 mm below dura at a 12° angle). A microdialysis probe is inserted through the guide cannula into the brain. Artificial CSF is used as microdialysis perfusion buffer. Microdialysis samples are collected every 60-90 min and are assessed for Aβ40 or Aβ42 by ELISAs. The mean concentration of Aβ over 6 hr is defined as basal concentration of ISF Aβ. For each animal, all Aβ concentrations are normalized to the basal Aβ concentration for that mouse. After basal concentration is determined mice are administered a blood-brain permeable γ-secretase inhibitor (LY411575, 3 mg/kg subcutaneously) to rapidly block the production of Aβ. […] The half-life of ISF Aβ is calculated on the basis of the slope of the semi-log plot of % change in Aβ versus time. […]"}, "NAGLU-deficient mice": {"system": "NAGLU-deficient mice", "settings": "cited from earlier work"}, "[1]": {"system": "cultured fibroblasts of MPS patients", "settings": "cited from earlier work"}, "Aβ secretion": {"system": "Aβ secretion", "settings": "in vitro exposure; cited from earlier work"}},
  "data": [
    {"smiles": "CCN(CC)CCCC(C)Nc1ccnc2cc(Cl)ccc12", "note": "(centres unmarked) [Chloroquine]", "values": [
      {"measurement": "change of ISF levels of Aβ", "setting": "ISF Aβ levels", "result": "did not change"}
    ]},
    {"smiles": "O=c1c(-c2ccc(O)cc2)coc2cc(O)cc(O)c12", "note": "[Genistein, 4′,5,7-trihydroxyisoflavone or 5,7-dihydroxy-3-(4-hydroxyphenyl)-4H-1-benzopyran-4-one]", "values": [
      {"measurement": "lysosomal storage material", "setting": "NAGLU-deficient mice", "result": "reduces lysosomal storage material"},
      {"measurement": "synthesis of glycosaminoglycans (GAGs)", "setting": "[1]", "result": "inhibits synthesis of glycosaminoglycans (GAGs)"}
    ]},
    {"smiles": "Cl.N", "note": "[ammonium chloride]", "values": [
      {"measurement": "Aβ secretion", "setting": "Aβ secretion", "result": "reduces Aβ secretion"}
    ]},
    {"smiles": "CO/C1=C\\C(C)=C\\[C@@H](C)[C@@H](O)[C@@H](C)C/C(C)=C/C=C/[C@H](OC)[C@@H]([C@@H](C)[C@@H](O)[C@H](C)[C@@]2(O)C[C@@H](O)[C@H](C)[C@@H](C(C)C)O2)OC1=O", "note": "[bafilomycin A1]", "values": [
      {"measurement": "Aβ secretion", "setting": "Aβ secretion", "result": "reduces Aβ secretion"}
    ]}
  ]
}
